{"source": "PubChem BioAssay (NCI)", "experiment_in_all_cases": "growth of human tumour cells (NCI), 384-well format", "key": {"IGROV1 ovarian": {"tested_on": "IGROV1 ovarian"}, "SNB-19 CNS": {"tested_on": "SNB-19 CNS"}, "NCI-H322M lung": {"tested_on": "NCI-H322M lung"}, "UO-31 renal": {"tested_on": "UO-31 renal"}, "CAKI-1 renal": {"tested_on": "CAKI-1 renal"}, "MALME-3M melanoma": {"tested_on": "MALME-3M melanoma"}, "TK-10 renal": {"tested_on": "TK-10 renal"}, "SF-268 CNS": {"tested_on": "SF-268 CNS"}, "MCF7 breast": {"tested_on": "MCF7 breast"}, "M14 melanoma": {"tested_on": "M14 melanoma"}, "HOP-92 NSCLC": {"tested_on": "HOP-92 NSCLC"}, "SF-539 CNS": {"tested_on": "SF-539 CNS"}, "SK-OV-3 ovarian": {"tested_on": "SK-OV-3 ovarian"}}, "note": "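GI50 = concentration required for 50% inhibition of growth. The concentration for full growth arrest is given as TGI.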"}
{"smiles": "CCNC(=O)c1cc2c(-c3cc(C(C)(C)O)ccc3Oc3c(C)cc(F)cc3C)cn(C)c(=O)c2[nH]1", "values": [{"measurement": "GI50", "setting": "IGROV1 ovarian", "result": 0.508, "unit": "µM"}, {"measurement": "TGI", "setting": "IGROV1 ovarian", "result": 2.29, "unit": "µM"}, {"measurement": "GI50", "setting": "SNB-19 CNS", "result": 2.01, "unit": "µM"}, {"measurement": "TGI", "setting": "SNB-19 CNS", "result": 13.2, "unit": "µM"}, {"measurement": "GI50", "setting": "NCI-H322M lung", "result": 1.61, "unit": "µM"}, {"measurement": "TGI", "setting": "NCI-H322M lung", "result": 11.9, "unit": "µM"}, {"measurement": "GI50", "setting": "UO-31 renal", "result": 2.23, "unit": "µM"}, {"measurement": "TGI", "setting": "UO-31 renal", "result": 13, "unit": "µM"}, {"measurement": "GI50", "setting": "CAKI-1 renal", "result": 0.265, "unit": "µM"}, {"measurement": "TGI", "setting": "CAKI-1 renal", "result": 10.7, "unit": "µM"}, {"measurement": "GI50", "setting": "MALME-3M melanoma", "result": 1.15, "unit": "µM"}, {"measurement": "TGI", "setting": "MALME-3M melanoma", "result": 3.36, "unit": "µM"}, {"measurement": "GI50", "setting": "TK-10 renal", "result": 0.366, "unit": "µM"}, {"measurement": "TGI", "setting": "TK-10 renal", "result": 2.96, "unit": "µM"}, {"measurement": "GI50", "setting": "SF-268 CNS", "result": 2.29, "unit": "µM"}, {"measurement": "TGI", "setting": "SF-268 CNS", "result": 11.4, "unit": "µM"}, {"measurement": "GI50", "setting": "MCF7 breast", "result": 0.0484, "unit": "µM"}, {"measurement": "TGI", "setting": "MCF7 breast", "result": 1.82, "unit": "µM"}, {"measurement": "GI50", "setting": "M14 melanoma", "result": 1.59, "unit": "µM"}, {"measurement": "TGI", "setting": "M14 melanoma", "result": 16.9, "unit": "µM"}, {"measurement": "GI50", "setting": "HOP-92 NSCLC", "result": 1.43, "unit": "µM"}, {"measurement": "TGI", "setting": "HOP-92 NSCLC", "result": 11.8, "unit": "µM"}, {"measurement": "GI50", "setting": "SF-539 CNS", "result": 1.53, "unit": "µM"}, {"measurement": "TGI", "setting": "SF-539 CNS", "result": 10.1, "unit": "µM"}, {"measurement": "GI50", "setting": "SK-OV-3 ovarian", "result": 0.412, "unit": "µM"}, {"measurement": "TGI", "setting": "SK-OV-3 ovarian", "result": 3.74, "unit": "µM"}]}
